Laboratory results: patent EP1503771B1, “SEDATIVE MATERIALS AND TREATMENTS” (University of Strathclyde, priority 2002, dated 2003)
Marks after values point to notes of the source that are not given here.

Legend:
male Swiss mice [1] = experiment: spontaneous locomotor activity (Opto-Varimex apparatus); type: in vivo; conditions: for Locomotor Activity Total / Locomotor Activity ambulatory: 4 mg/kg, decrement relative to vehicle values; for Locomotor Total activity: ambulatory locomotor activity
Method: (§1) In all in vivo tests male Swiss mice of 28-30 g were used. The animals were injected i.p. with vehicle, or a solution of the drug, or fraction, 20 min before the assay. The assays were performed in mice i.p. injected with an amount of each fraction equivalent to that obtained from 1 g of dry Valeriana wallichii powder (see Table 3), 20 min before the test. In the case of the remaining aqueous solution (see Figure 2) it was injected at the maximum tolerated dose which was equivalent to that obtained from only 12 mg of dry Valeriana wallichii powder. This low dosage explains the absence of activity recorded in Table 4.
(§2) The following tests were used: spontaneous ambulatory activity counts in an Opto-Varimex apparatus that optically detects and measures locomotor activity; the Hole-board, a well-known test to assay for the sedative behavior (6); and the horizontal wire test to detect myorelaxation as described in detail in the literature (7).
(§3) Mean ±SEM of locomotor activity registered during 5 min session in an Opto-Varimex apparatus and performance of mice in the holeboard test. Wire test was performed after two trials and was registered the number of animals grasped the wire for 3 seconds. Vehicle or 6-methylapigenin were ip administered 20 min before tests. No significant differences were observed using the Student's t test at p>0.05. Table 9 - Anxiolytic effect of 6-methylapigenin measured in the plus-maze test

male Swiss mice [2] = experiment: Hole-board test (sedation); type: in vivo; conditions: for Hole-board test N° of Head- dips / Hole-board test N° of rearings / Hole-board test Time head dipping: mice
male Swiss mice [3] = experiment: horizontal wire test (myorelaxation); type: in vivo
Method: as §1, §2, §3

mice [4] = experiment: sodium thiopental-induced sleeping time; type: in vivo
Method: The effect of the active components in fraction H of Table 3 (ACN 50%, 23-27) and that of the aqueous remaining solution (Table 3) were tested in mice by i.p. administration. The doses were 2 mg per mouse for fraction H and 5 mg per mouse for the aqueous remaining solution fraction B. A small amount of conventional anesthetic (30 mg/kg of thiopental sodium - Biochemie, GmbH, Kundl, Austria) was used to induce a slight sleeping condition in the mice which were monitored to detect any possible enhancement of the sleeping condition by the previous injection of the novel compounds.
Median (interquartile range) of sleeping time of mice given a sodium thiopental i.p. administration (30 mg/kg) 20 min after an i.p. injection of vehicle or 6-methylapigenin. The sleeping time was measured as the time spent between disappearance and reappearance of righting reflex. Table 8 - Effect in different behavioral tests of 6-methylapigenin (sedation tests)

BDZ-bs = experiment: GABA-shift of [3H]-FNZ displacement curves; type: binding; conditions: for GABA-shift: [3H]-FNZ binding to cortical brain membranes in the presence or absence of 100 µM GABA, n= 3
mice [5] = experiment: elevated plus-maze test (anxiolysis); type: in vivo; conditions: for % open arm entries / % time spent in open arms / arm entries: mice, mean ±SEM
Excerpt: Anti-anxiety as discussed in the present application is based on the fear that mice have for open spaces i.e. the elevated plus-maze assay.

[6] = system: BDZ-bs (benzodiazepine binding site in GABAA brain receptor); experiment: BDZ-bs binding assay ([3H]-FNZ binding to cerebral cortical membranes); set-up: species or system rat
Method: In vitro binding assays were carried out with various receptors as well as in vivo tests for sedative activity on the various fractions A-K recovered in Example 1 using the known procedures described in detail in the literature for the following receptors: BDZ-bs (benzodiazepine binding site in GABAA brain receptor) (1); 5-hydroxytriptamine-type 1A (5HT1A) (2); 5HT2 (3); AMPA glutamatergic (4); adenosine 1 (5) . In vivo sedation activity was measured by the Hole-board test (6).
The presence of BDZ-bs ligands in the fractions obtained at the end of the preparative fractionation scheme described in Figure 2 was checked by the BDZ-bs binding assay as described in Example 2.
No BDZ-bs ligands were found in the eluates obtained with 20 %, 30 % and 80 % ACN, but they were present in those obtained with 40 % and 50 % ACN. The BDZ-bs ligands distribution obtained is shown in Figure 3 in which the percentage of binding inhibition of [^3H]-FNZ to rat cerebral cortical membranes (averages of duplicated measurements), is shown for 0.05 mL aliquots of the indicated fractions. (Note: Fractions 1-5, 6-10 and 28-32 were collected in bulk; 40 % and 50 % eluates were collected as separate 100 mL fractions. The arrows inside the graph indicate the pools made). […]

[7] = 4 mg/kg, decrement relative to vehicle values
[8] = mice, 4 mg/kg i.p. 20 min before sodium thiopental 30 mg/kg i.p. (Table 10)
[9] = mice, 9 mg/kg i.p. 20 min before sodium thiopental 30 mg/kg i.p. (Table 10)
[10] = mice, 1 mg/kg i.p. 20 min before sodium thiopental 30mg/kg i.p. (Table 20)
[11] = mice, hesperidin 2 mg/kg i.p. 20 min before sodium thiopental 30mg/kg i.p. (Table 20)
[12] = 10 mg/kg ip 20 min before test, 5 min session, mean ±SEM
[13] = 10 mg/kg ip 20 min before test, mean ±SEM
[14] = 0.3 mg/kg ip 20 min before test

COc1ccc([C@@H]2CC(=O)c3c(O)cc(O[C@@H]4O[C@H](CO[C@@H]5O[C@@H](C)[C@H](O)[C@@H](O)[C@H]5O)[C@@H](O)[C@H](O)[C@H]4O)cc3O2)cc1O [Citrus hesperidin, hesperidin, reference compound]
Locomotor Activity Total (male Swiss mice [1]): -31 percentage | Locomotor Activity ambulatory (male Swiss mice [1]): -30 percentage | Hole-board test N° of Head- dips (male Swiss mice [2]; [7]): -40 percentage | Hole-board test N° of rearings (male Swiss mice [2]; [7]): -22 percentage | Hole-board test Time head dipping (male Swiss mice [2]; [7]): -44 percentage | Wire (male Swiss mice [3]; 4 mg/kg): 0 percentage | activity relative to the natural isomer from valeriana (mice [4]; estimated from Table 10, sleeping time in mice): approximately 60% | Sleeping time Median (s) (mice [4]; [8]): 660* s | Sleeping time Median (s) (mice [4]; [9]): 1440** s

O=c1cc(-c2ccc(O)cc2)oc2cc(O)cc(O)c12 [Apigenin, reference compound]
Sleeping time Median (mice [4]; [10]): 0 min | Sleeping time Median (min) (mice [4]; mice, 1 mg/kg i.p. 20 min before sodium thiopental 30mg/kg i.p. (Table 20), listed as apigenin): do not produce any sleeping time

CN1C(=O)CN=C(c2ccccc2)c2cc(Cl)ccc21 [diazepam, reference compound]
GABA-shift (BDZ-bs): 2.00 ± 0.10

COc1ccc([C@@H]2CC(=O)c3c(O)cc(O[C@@H]4O[C@H](CO[C@@H]5O[C@@H](C)[C@H](O)[C@@H](O)[C@H]5O)[C@@H](O)[C@H](O)[C@H]4O)cc3O2)cc1O [Valeriana hesperidin, Hesperetin 7-rhamnoglucoside; 4H-1-Benzopyran-4-one, 7-[[6-O-(6-deoxy-alpha-L-mannopyranosyl)-beta-D-glucopyranosyl]oxy]-2,3-dihydro-5-hydroxy-2-(3-hydroxy-4-methoxyphenyl)-, (S)-]
Locomotor Activity Total (male Swiss mice [1]): -55** percentage | Locomotor Activity ambulatory (male Swiss mice [1]): -58** percentage | Hole-board test N° of Head- dips (male Swiss mice [2]; [7]): -74** percentage | Hole-board test N° of rearings (male Swiss mice [2]; [7]): -58** percentage | Hole-board test Time head dipping (male Swiss mice [2]; [7]): -81## percentage | Wire (male Swiss mice [3]; 4 mg/kg): 0 percentage | Sleeping time Median (mice [4]; mice, 1 mg/kg i.p. 20 min before sodium thiopental 30 mg/kg i.p. (Table 10)): 0.583 min | Sleeping time Median (s) (mice [4]; mice, 2 mg/kg i.p. 20 min before sodium thiopental 30 mg/kg i.p. (Table 10)): 197* s | Sleeping time Median (s) (mice [4]; [8]): 1290** s | Sleeping time Median (s) (mice [4]; [9]): 1800** s | Sleeping time Median (s) (mice [4]; mice, hesperidin 2 mg/kg i.p. 20 min before sodium thiopental 30 mg/kg i.p. (Table 12)): 179* s | Sleeping time Median (s) (mice [4]; mice, i.p., Dose 3 (unit not given), 20 min before sodium thiopental 30 mg/kg i.p.): 500** s

COc1ccc([C@@H]2CC(=O)c3c(O)cc(O[C@@H]4O[C@H](CO[C@@H]5O[C@@H](C)[C@H](O)[C@@H](O)[C@H]5O)[C@@H](O)[C@H](O)[C@H]4O)cc3O2)cc1O [Hesperidin]
Sleeping time Median (mice [4]; mice, 4 mg/kg (Table 13)): 20 min | Sleeping time Median (mice [4]; [11]): 3.5 min | Sleeping time Median (min) (mice [4]; [11]): 3.5* min

Cc1c(O)cc2oc(-c3ccc(O)cc3)cc(=O)c2c1O (single isomer, unassigned) [6-methylapigenin]
Locomotor Total activity (male Swiss mice [1]; 0.3 mg/kg ip 20 min before test, 5 min session, mean ±SEM): 410±36 | Locomotor Total activity (male Swiss mice [1]; 1 mg/kg ip 20 min before test, 5 min session, mean ±SEM): 463±64 | Ambulatory locomotor activity (male Swiss mice [1]; [12]): 395±43 | Total Locomotor Activity (male Swiss mice [1]; [12]): 552±55 | Hole-board test N° of Head- dips (male Swiss mice [2]; [13]): 7±0.5 | Hole-board test N° of rearings (male Swiss mice [2]; [13]): 28±3 | Hole-board test Time head dipping (male Swiss mice [2]; [13]): 10±1 | sedative effects (male Swiss mice [2]; up to 10 mg/kg in mice): does not have sedative effects | GABA-shift (BDZ-bs): 1.6-2.0 | behaviour at the BDZ-bs from GABA-shift (BDZ-bs; presence or absence of 100 µM GABA): behaves as an agonist | Wire (male Swiss mice [3]; 10 mg/kg ip, number of animals that grasped the wire for 3 seconds): 5/5 | anxiolytic properties in the plus-maze assay (mice [5]; dose of 1 mg/kg in mice): clear anxiolytic properties | % open arm entries (mice [5]; [14]): 48±4% | % time spent in open arms (mice [5]; [14]): 42±4% | arm entries (mice [5]; [14]): 17±2 | % open arm entries (mice [5]; 1 mg/kg ip 20 min before test): 60±6 % | % time spent in open arms (mice [5]; 1 mg/kg ip 20 min before test): 58±5 % | arm entries (mice [5]; 1 mg/kg ip 20 min before test): 14±2 | Sleeping time Median (mice [4]; mice, 6-methylapigenin 1mg/kg (Table 18)): 0 min | Sleeping time Median (mice [4]; mice, 6-methylapigenin 1 mg/kg i.p. 20 min before sodium thiopental 30 mg/kg i.p. (Table 12)): 0 min | Sleeping time (min) median values (mice [4]; mice, i.p., 1 mg/kg, 20 min before sodium thiopental 30 mg/kg i.p. (Table 7)): 0 min | effect on sleeping time (mice [4]; up to 1 mg/kg, mice receiving a sub-hypnotic dose of thiopental): does not affect the sleeping time | Scatchard analysis of saturation curves: type of interaction ([6]; [3H] FNZ saturation curves, decline in apparent affinity without changes in Bmax): competitive interaction | Ki ([6]; n= 5 (ligand 1), n= 3 (ligand 2)): 500 ± 170 nM

CC1=C2[C@H](/C=C(\C)C(=O)O)CC[C@@H](C)[C@H]2CC1 [Valerenic acid, reference compound]
Sleeping time Median (mice [4]; mice, valerenic acid 5 mg/kg (Table 18)): 0 min | Sleeping time Median (mice [4]; mice, valerenic acid 5 mg/kg i.p. 20 min before sodium thiopental 30 mg/kg i.p. (Table 17)): 0 min | Sleeping time Median (mice [4]; mice, valerenic acid 15mg/kg i.p. 20 min before sodium thiopental 30 mg/kg i.p. (Table 17)): 0 min

COc1ccc(-c2cc(=O)c3c(O)cc(O[C@@H]4O[C@H](CO[C@@H]5O[C@@H](C)[C@H](O)[C@@H](O)[C@H]5O)[C@@H](O)[C@H](O)[C@H]4O)cc3o2)cc1 [Linarin, 7-[[6-O-(6-deoxy-α-L-mannopyranosyl)-β-D-glucopyranosyl]oxy]-5-hydroxy-2-(4-methoxyphenyl)-4H-benzopyran-4-one]
dose at which hypnotic activity is evident (mice [4]; estimated from Table 16): 7 mg/kg | Sleeping time Median (mice [4]; mice, 4 mg/kg i.p. 20 min before sodium thiopental 30 mg/kg i.p. (Table 16)): 0 min | Sleeping time Median (min) (mice [4]; mice, 7 mg/kg i.p. 20 min before sodium thiopental 30 mg/kg i.p. (Table 16)): 30** min | Sleeping time Median (min) (mice [4]; mice, 14 mg/kg i.p. 20 min before sodium thiopental 30 mg/kg i.p. (Table 16)): 30** min | Sleeping time Median (mice [4]; mice, linarin 4 mg/kg i.p. 20 min before sodium thiopental 30 mg/kg i.p. (Table 17)): 0 min

O=c1cc(-c2ccccc2)oc2cc(O)cc(O)c12 [Chrysin, reference compound]
Sleeping time Median (mice [4]; [10]): 0 min
